Article PMC8558867, “Development of BromoTag: A “Bump-and-Hole”–PROTAC System to Induce Potent, Rapid, and Selective Degradation of Tagged Target Proteins” (Journal of Medicinal Chemistry, 2021)
Several values for one entry are separate records, joined by “and”; a condition that tells them apart may be missing. Equal entries are not always repeated. Where two headings read alike, the source gives them in different places.

How the values were obtained:
BromoTag-Brd2 [1] = assay: Dose–response degradation assay (western blot, 6 h) in heterozygous BromoTag-Brd2 HEK293 cells; format: cell-based, human; conditions: 6 h; for DC50: read-out: DC50 of BromoTag-Brd2 degradation (DC50, 6h), single stereoisomers
VHL (VCB protein) = target: T1, VHL (VCB protein) (Homo sapiens, UniProt P40337); assay: FP competitive binding assay, binary binding; conditions: compound alone; mean ±S.E.M., N = 4; read-out: binary affinity to VHL Kd
T1 construct: N-terminally His6-tagged VHL (54–213); His6 (N, cleaved yes); made in house; host or cells: E. coli

VHL with Brd4^BD2 L387A = target: T2, VHL with Brd4^BD2 L387A (Homo sapiens, UniProt O60885+P40337, L387A); assay: FP competitive binding assay, ternary complex binding (compound preincubated with Brd4^BD2 L387A)
T2 construct: N-terminally His6-tagged VHL (54–213); His6 (N, cleaved yes); made in house; host or cells: E. coli

[2] = tested on: proteome of heterozygous BromoTag-Brd2 HEK293 cells; assay: Multiplexed TMT labeling mass spectrometry proteomics; format: cell-based, human; conditions: 1 μM, 2 h
Protocol: To do this, we subjected our heterozygous BromoTag-Brd2 HEK293 cell line to a 1 μM treatment of 46, its non-degrading control 52, or vehicle (DMSO) for 2 h prior to harvest. The harvested lysate was then subjected to multiplexed tandem mass tag (TMT) labeling mass spectrometry to enable quantitative and unbiased analysis of protein levels in each condition.
CRISPR-modified BromoTag-Brd2 HEK293 cells (5 × 10^6) were seeded on a […] 24 h before treatment. The cells were treated with either DMSO, 1 μM AGB1, or 1 μM cis-AGB1. After 2 h of treatment, the cells were washed twice with PBS. The cells were lysed in 150 μL of 100 mM TEAB and 5% (w/v) sodium dodecyl sulfate. The lysate was sonicated for 10 s and then centrifuged at 15,000g for 5 min with the supernatant collected post-centrifugation. The samples were then quantified using a micro-BCA protein assay kit (Thermo Fisher Scientific); 300 μg of each sample was then reduced, alkylated, and then digested using the Strap mini protocol (protifi) as described by the manufacturer (protifi) with some modification. The samples were double-digested with trypsin (1:40) first overnight and then for another 6 h with the same ratio (1:40) in 50 mM TEAB buffer. The peptides were quantified using a quantitative fluorometric peptide assay (Thermo Fisher Scientific). […]

BromoTag-Brd2 [3] = assay: Recovery (washout) assay; format: cell-based, human
Protocol: This was performed in the genotype-verified heterozygous BromoTag-Brd2 HEK293 cell line. Heterozygous BromoTag-Brd2 HEK293 cells were plated at a density of 5 × 10^5 cells per well of a six-well plate a day before initiating the recovery assay. […] During treatment, the cells were kept at 37 °C, 5% CO2, and 95% humidity.
All cells were harvested on ice with RIPA lysis and extraction buffer (Thermo Fisher Scientific, 89901) supplemented with protease inhibitor cocktail (Merck, 11697498001) and Benzonase Nuclease (Sigma, E1014) before being stored at −20 °C prior to use. Total protein quantity was determined using the BCA protein assay (#23225, Pierce, Rockford, Illinois). The protein concentration was determined using the BCA assay (Thermo Fisher Scientific, 23225). The samples were then prepared and loaded onto NuPAGE 4–12% bis–tris Midi gels (Thermo Fisher Scientific, WG1403A), followed by the transfer of proteins onto nitrocellulose membranes (EMD Millipore). The membranes were blocked for 1 h prior to incubation with the primary antibodies using 5% Milk TBST. […] All western blots were analyzed for band intensities using Image Lab from Bio-Rad (LI-COR, Biosciences). The data extracted from these blots were then plotted and analyzed using Prism (v. 8.2.0, GraphPad).

[4] = eight-point 10 μM to 1 nM, mean ±S.E. of two repeats

With `CC[C@@H](C(=O)OCCOCCOCCOCC(=O)N[C@H](C(=O)N1C[C@H](O)C[C@H]1C(=O)NCc1ccc(-c2scnc2C)cc1)C(C)(C)C)[C@@H]1N=C(c2ccc(Cl)cc2)c2c(sc(C)c2C)-n2c(C)nnc21` [AGB1 (46), (S)-13-((2S,4R)-4-Hydroxy-2-((4-(4-methylthiazol-5-yl)benzyl)carbamoyl)pyrrolidine-1-carbonyl)-14,14-dimethyl-11-oxo-3,6,9-trioxa-12-azapentadecyl (R)-2-((S)-4-(4-chlorophenyl)-2,3,9-trimethyl-6H-thieno[3,2-f][1,2,4]triazolo[4,3-a][1,4]diazepin-6-yl)butanoate] the “pDC50 (Ab: Brd^4BD2 L387A)” value (BromoTag-Brd2 [1]; [4]) was 7.8 ± 0.2, the “pDC50 (Ab: BromoTag-Brd2)” value (BromoTag-Brd2 [1]; [4]) was 7.9 ± 0.1 and the DC50 (BromoTag-Brd2 [1]) was 12.6 to 14.5 nM. For the same compound, the DC50 (BromoTag-Brd2 [1]; listed as 46) was 13 to 15 nM and ~13 nM, the Kd (VHL (VCB protein)) was 125 nM and the “α (FP binding)” value (VHL with Brd4^BD2 L387A; cooperativity, Kd binary/Kd ternary, supplementary CSV) was 11.1. The Kd (VHL with Brd4^BD2 L387A; preincubated with Brd4^BD2 L387A, mean ±S.E.M., N = 4, read-out: ternary binding affinity Kd) was 11 nM, the “cooperativity (α)” value (VHL with Brd4^BD2 L387A; α = Kd binary/Kd ternary) was 11.1 and the “proteins significantly degraded among the 6621 proteins quantified” value [2] was “only Brd2 was shown to be significantly degraded”. For the same compound, the “time after washout at which BromoTag-Brd2 protein levels recover” value (BromoTag-Brd2 [3]; 200 nM for 3 h, then washout) was 24 h and the “on-target degradation without washout” value (BromoTag-Brd2 [3]; 200 nM, no washout) was “complete and durable on-target degradation for up to 72 h”.
